The results in this text go back to US9309285B2, “Macrocyclic broad spectrum antibiotics” (priority 2012, dated 2016).

The target in assay [1] is T1, E. coli SPase (Escherichia coli, UniProt P00803).
T1 construct: Full length His-tagged E. coli and S. aureus SPase proteins were expressed in E. coli BL21; His tag; made in house; host or cells: E. coli BL21 (DE3)
The assay can be described thus: SPase enzyme inhibition assay, fluorogenic peptide substrate, E. coli. The assay is classed as biochemical. How it is done: (§1) Briefly, for expression of E. coli SPase, saturated overnight cultures grown in 20 ml of Luria-Bertani medium supplemented with ampicillin were subcultures into 1.5 L of Luria-Bertani, and shaken at 37° C. until an optical density at 600 nm of 0.4-0.5 was achieved. […] S. aureus SPase was expressed and purified similarly, with the following exceptions. […] Resin bound protein was washed in a similar buffer containing 1% Elugent in place of Triton X-100 prior to protein elution in wash buffer supplemented with 300 mM imidazole. […] All protein concentrations were determined by BCA assay.
(§2) Enzyme master solution was prepared by diluting Escherichia coli or Staphylococcus aureus SPase protein into reaction buffer to a final concentration of 3 nM or 10 nM respectively. Reaction buffer consisted of 20 mM NaKHPO4 pH 7.4, 100 mM NaCl, and 1% v/v Elugent™ detergent. Reactions were initiated by the addition of substrate to a final concentration of 20 μM. Reaction progress was monitored by measuring the increase in fluorescence signal (excitation at 314 nm, emission at 416 nm) using a SpectraMax M2 fluorescence microplate reader. […] Three-folder serial dilutions of test compounds, starting at 10 μM, were prepared in enzyme mix solution and incubated at room temperature for 10 minutes. Following this incubation, fluorogenic substrate was added to a final concentration of 20 μM and the increase in fluorescence, corresponding to substrate cleavage, was monitored continuously at room temperature for 1 hour. Initial reaction rates were calculated based on the rate of increase in fluorescence during the reaction. Reaction rates were plotted as a function of compound concentration, and IC50 values were determined nonlinear regression analysis (SoftMaxPro 5.4, Molecular Devices™) of the sigmoidal dose-response curve.

Assay [2] has as its system Methicillin Resistant Staphylococcus aureus strain USA 300 (NRS384). The experiment in a line: MIC by broth micro-dilution (CLSI), S. aureus. The assay is classed as cell-based. Particulars: Staphylococcus aureus, MRSA / NRS 384 / USA300; MRSA USA 300 (NRS384); cation adjusted Mueller Hinton Broth + 0.002% Tween-80; 35° C., 22 hours; read-out: MIC (μg/mL) S. aureus. The method, then: In vitro antimicrobial activity of each compound was determined by measuring minimal inhibitor concentrations (MICs) using the broth micro-dilution technique as approved by the Clinical and Laboratory Standards Institute (CLSI) (Methods for Dilution Antimicrobial Susceptibility Tests for Bacteria that Grow Aerobically; Approved Standard—Eighth Edition. CLSI document M07-A8. Wayne, Pa.: Clinical and Laboratroy Standards; 2009). Antibacterial activity was measure against two strains of bacteria: a Methicillin Resistant Staphylococcus aureus strain USA 300 (NRS384) and a strain of Escherichia coli MC4100 harboring the IMP4213, which results in increased outer-membrane permeability (B Martin and Silhavy T. Imp/OstA is required for cell envelope biogenesis in Escherichia coli. (2002) Molecular Microbiology, 45(5), 1289-1302). Cells were inoculated onto plates of Trypyticase Soy Agar or Luria Agar respectively and grown at 35° C. for 20 hours. Inocula suspensions were prepared by scraping cells into 1 ml of testing media (cation adjusted Mueller Hinton Broth supplemented with 0.002% v/v Tween-80) and diluting to a final OD600 nm of 0.01.
Test compounds were prepared in DMSO at a concentration of 10 mg/ml. These compound stocks were diluted into testing media at a concentration of 64 μg/ml and serial 2-fold dilutions were made in the same media, in 96-well U bottom microtiter dishes, for a total of 10 compound concentrations. Inocula suspensions were added to the 2-fold serial dilutions of test compounds to a final density of OD OD600 nm of 0.0005 and incubated at 35° C. for 22 hours.

Assay [3] deals with T2, S. aureus SPase (Staphylococcus aureus, UniProt P0A070).
T2 construct: Full length His-tagged E. coli and S. aureus SPase proteins were expressed in E. coli BL21; His tag; made in house; host or cells: E. coli BL21 (DE3)
T2 sequence (P0A070 1-191): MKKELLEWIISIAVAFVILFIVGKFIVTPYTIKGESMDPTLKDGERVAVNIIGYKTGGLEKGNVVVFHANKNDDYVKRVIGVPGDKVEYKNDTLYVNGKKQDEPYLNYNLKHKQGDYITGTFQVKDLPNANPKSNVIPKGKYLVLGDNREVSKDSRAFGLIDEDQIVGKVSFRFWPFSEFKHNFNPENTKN
The assay can be described thus: SPase enzyme inhibition assay, fluorogenic peptide substrate, S. aureus. The format is biochemical. The method, then:
as §1, §2

Setting [4] is: 3 nM E. coli SPase, 20 μM substrate, 10 minutes pre-incubation, room temperature, read-out: IC 50 (nM) E. coli.

SMILES strings stand for the structures. Read-outs that look alike come from different tables or passages of the source.

T1 sequence (P00803 whole entry): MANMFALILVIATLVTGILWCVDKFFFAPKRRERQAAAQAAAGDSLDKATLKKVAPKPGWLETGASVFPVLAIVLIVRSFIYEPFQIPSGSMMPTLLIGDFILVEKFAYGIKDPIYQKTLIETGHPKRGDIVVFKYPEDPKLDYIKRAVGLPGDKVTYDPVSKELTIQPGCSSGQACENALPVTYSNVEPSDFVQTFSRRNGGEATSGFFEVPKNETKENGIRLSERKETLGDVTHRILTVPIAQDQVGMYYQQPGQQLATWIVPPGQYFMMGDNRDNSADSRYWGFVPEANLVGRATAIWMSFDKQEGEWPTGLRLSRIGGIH

Take `CCCCc1ccc(-c2ccc(C(=O)NCC(C)C(=O)N[C@@H](CCCCN)C(=O)N(C)[C@@H]3C(=O)N[C@@H](C)C(=O)N[C@H](C(=O)O)Cc4ccc(O)c(c4)-c4cc3ccc4O)cc2)cc1` (mixture of isomers) [Compound 104]: the IC50 in assay [1] (setting [4]) stood at 3.7 nM; in assay [3], 12 nM. The MIC in assay [2] amounted to 4 µg/mL.

Turning to `CCCCc1ccc(-c2ccc(C(=O)NC(CCCCN)C(=O)N[C@H]3COCCCCOC[C@@H](C(=O)N[C@@H](C)B4O[C@@H]5C[C@@H]6C[C@@H](C6(C)C)[C@]5(C)O4)NC(=O)[C@H](C)NC3=O)cc2)cc1` (mixture of isomers) [Compound 206], the IC50 turned out to be 81 nM in assay [1] (setting [4]) and 600 nM in assay [3]. The MIC in assay [2] came to 4 µg/mL.

With `CCCCc1ccc(-c2ccc(C(=O)NCC(C)C(=O)N[C@@H](CCN)C(=O)N(C)[C@@H]3C(=O)N[C@@H](C)C(=O)N[C@H](C(=O)O)Cc4ccc(O)c(c4)-c4cc3ccc4O)cc2)cc1` (single isomer, unassigned) [Compound 114], the IC50 came out at 730 nM in assay [1] (setting [4]) and 2200 nM in assay [3]. Further, the MIC in assay [2] came out at 64 µg/mL.

Take `CCCCc1ccc(-c2ccc(CC(=O)NCCC(=O)N[C@@H](CCCCN)C(=O)N(C)[C@@H]3C(=O)N[C@@H](C)C(=O)N[C@H](C(=O)O)Cc4ccc(O)c(c4)-c4cc3ccc4O)cc2)cc1` [Compound 101]: the IC50 in assay [1] (setting [4]) is 5.4 nM; in assay [3], 30 nM. Besides, the MIC in assay [2] came to 6.3 µg/mL.

Regarding `CCCCc1ccc(-c2ccc(C(=O)N[C@H](C)C(=O)N[C@@H](CCCCN)C(=O)N(C)[C@@H]3C(=O)N[C@@H](C)C(=O)N[C@H](C(=O)O)Cc4ccc(O)c(c4)-c4cc3ccc4O)cc2)cc1` [Compound 102], the IC50 was determined as 11 nM in assay [1] (setting [4]) and 280 nM in assay [3]. The MIC in assay [2] was determined as 10 µg/mL.

For `CCCCc1ccc(-c2ccc(C(=O)NC[C@@H](C)C(=O)N[C@@H](CCCCN)C(=O)N(C)[C@@H]3C(=O)N[C@@H](C)C(=O)N[C@H](C(=O)O)Cc4ccc(O)c(c4)-c4cc3ccc4O)cc2)cc1` [Compound 103], the IC50 in assay [1] (setting [4]) was 1.3 nM; in assay [3], 8 nM. Besides, the MIC in assay [2] came out at 2.1 µg/mL.

For the compound `CCCCCCCCCCCCCC(=O)NCCC(=O)N[C@@H](CCCCN)C(=O)N(C)[C@@H]1C(=O)N[C@@H](C)C(=O)N[C@H](C(=O)O)Cc2ccc(O)c(c2)-c2cc1ccc2O` [Compound 105], the IC50 was determined as 1.3 nM in assay [1] (setting [4]) and 16 nM in assay [3]. Moreover, in assay [2], the MIC was determined as 0.63 µg/mL.

For `CCCCc1ccc(-c2ccc(C(=O)NC(C)CC(=O)N[C@@H](CCCCN)C(=O)N(C)[C@@H]3C(=O)N[C@@H](C)C(=O)N[C@H](C(=O)O)Cc4ccc(O)c(c4)-c4cc3ccc4O)cc2)cc1` (stereo partly drawn) [Compound 106], the values for the IC50 in assay [1] (setting [4]) and in assay [3] were 2.9 nM and 8.8 nM, respectively. For the same compound, the MIC in assay [2] was found to be 2 µg/mL.

As to `CCCCc1ccc(-c2ccc(C(=O)N[C@@H](C)CC(=O)N[C@@H](CCCCN)C(=O)N(C)[C@@H]3C(=O)N[C@@H](C)C(=O)N[C@H](C(=O)O)Cc4ccc(O)c(c4)-c4cc3ccc4O)cc2)cc1` [Compound 107], the IC50 in assay [1] (setting [4]) was found to be 0.6 nM; in assay [3], 2.6 nM. For the same compound, the MIC in assay [2] was found to be 11 µg/mL.

As for `CCCCc1ccc(-c2ccc(C(=O)NCC(=O)N[C@@H](CCCCN)C(=O)N(C)[C@@H]3C(=O)N[C@@H](C)C(=O)N[C@H](C(=O)O)Cc4ccc(O)c(c4)-c4cc3ccc4O)cc2)cc1` [Compound 108], the IC50 in assay [1] (setting [4]) is 2.4 nM; in assay [3], 110 nM. For the same compound, the MIC in assay [2] came to 8 µg/mL.

`CCCCc1ccc(-c2ccc(C(=O)NC[C@@H](N)C(=O)N[C@@H](CCCCN)C(=O)N(C)[C@@H]3C(=O)N[C@@H](C)C(=O)N[C@H](C(=O)O)Cc4ccc(O)c(c4)-c4cc3ccc4O)cc2)cc1` [Compound 109]: the values for the IC50 in assay [1] (setting [4]) and in assay [3] were 11 nM and 15 nM, respectively. In addition, the MIC in assay [2] is > 64 µg/mL.

Take `CCCCc1ccc(-c2ccc(C(=O)NCCC(=O)N(C)[C@@H]3C(=O)N[C@@H](C)C(=O)N[C@H](C(=O)O)Cc4ccc(O)c(c4)-c4cc3ccc4O)cc2)cc1` [Compound 112]: the IC50 in assay [1] (setting [4]) turned out to be 850 nM; in assay [3] it was 7200 nM. The MIC in assay [2] is > 64 µg/mL.

Consider `CCCCc1ccc(-c2ccc(C(=O)NCC(C)C(=O)N[C@@H](CCCN)C(=O)N(C)[C@@H]3C(=O)N[C@@H](C)C(=O)N[C@H](C(=O)O)Cc4ccc(O)c(c4)-c4cc3ccc4O)cc2)cc1` (stereo partly drawn) [Compound 113], for which the values for the IC50 in assay [1] (setting [4]) and in assay [3] were 3.6 nM and 69 nM, respectively. Moreover, the MIC in assay [2] came out at 4 µg/mL.

Consider `CCCCc1ccc(-c2ccc(C(=O)N(C)[C@@H]3C(=O)N[C@@H](C)C(=O)N[C@H](C(=O)O)Cc4ccc(O)c(c4)-c4cc3ccc4O)cc2)cc1` [Compound 116], for which the IC50 in assay [1] (setting [4]) and in assay [3] was > 10000 nM in each case. Also, the MIC in assay [2] is > 64 µg/mL.

Turning to `CCCCc1ccc(-c2ccc(C(=O)N[C@@H](CCCCN)C(=O)NCCC(=O)N(C)[C@@H]3C(=O)N[C@@H](C)C(=O)N[C@H](C(=O)O)Cc4ccc(O)c(c4)-c4cc3ccc4O)cc2)cc1` [Compound 117], the IC50 in assay [1] (setting [4]) is 760 nM; in assay [3], 3900 nM. Besides, in assay [2], the MIC was > 64 µg/mL.

Turning to `CCCCc1ccc(-c2ccc(C(=O)N[C@@H](CCCCN)C(=O)N(C)[C@@H]3C(=O)N[C@@H](C)C(=O)N[C@H](C(=O)N[C@@H](C)B4O[C@@H]5C[C@@H]6C[C@@H](C6(C)C)[C@]5(C)O4)Cc4ccc(O)c(c4)-c4cc3ccc4O)cc2)cc1` [Compound 121], the IC50 in assay [1] (setting [4]) was 29 nM; in assay [3] it was 110 nM. Besides, the MIC in assay [2] was determined as 0.71 µg/mL.

For `CCCCCCCC(=O)NCCC(=O)N[C@@H](CCCCN)C(=O)N(C)[C@@H]1C(=O)N[C@@H](C)C(=O)N[C@H](C(=O)N[C@@H](C)B2O[C@@H]3C[C@@H]4C[C@@H](C4(C)C)[C@]3(C)O2)Cc2ccc(O)c(c2)-c2cc1ccc2O` [Compound 123], the IC50 came to 20 nM in assay [1] (setting [4]) and 18 nM in assay [3]. In addition, the MIC in assay [2] is 64 µg/mL.

`CCCCCCCC(=O)N[C@@H](CCCCN)C(=O)N(C)[C@@H]1C(=O)N[C@@H](C)C(=O)N[C@H](C(=O)N[C@@H](C)B2O[C@@H]3C[C@@H]4C[C@@H](C4(C)C)[C@]3(C)O2)Cc2ccc(O)c(c2)-c2cc1ccc2O` [Compound 125]: the IC50 in assay [1] (setting [4]) was found to be 26 nM; in assay [3], 64 nM. Moreover, in assay [2], the MIC turned out to be 23 µg/mL.

For the compound `CCCCCCCC(=O)N[C@@H](CCCCN)C(=O)N(C)[C@@H]1C(=O)N[C@@H](C)C(=O)N[C@H](C(=O)NCB2O[C@@H]3C[C@@H]4C[C@@H](C4(C)C)[C@]3(C)O2)Cc2ccc(O)c(c2)-c2cc1ccc2O` [Compound 126], the results for the IC50 in assay [1] and in assay [3] were 13 nM and 130 nM, respectively. Besides, the MIC in assay [2] worked out at 32 µg/mL.

For `C[C@@H]1NC(=O)[C@@H](N(C)C(=O)[C@H](CCCCN)NC(=O)c2ccc(-c3ccc(Cl)cc3)cc2)c2ccc(O)c(c2)-c2cc(ccc2O)C[C@@H](C(=O)N[C@@H](C)C(=O)N2CCC[C@H]2C(N)=O)NC1=O` [Compound 132], the IC50 in assay [1] amounted to 26 nM; in assay [3], 5.9 nM. Also, the MIC in assay [2] was 6.1 µg/mL.

As to `C[C@@H]1NC(=O)[C@@H](N(C)C(=O)[C@H](CCCCN)NC(=O)c2ccc(-c3ccc(Cl)cc3)cc2)c2ccc(O)c(c2)-c2cc(ccc2O)C[C@@H](C(=O)N[C@@H](C)C=O)NC1=O` [Compound 134], the figures for the IC50 in assay [1] (setting [4]) and in assay [3] were 0.8 nM and 8.2 nM, respectively. In addition, the MIC in assay [2] turned out to be 10 µg/mL.
